“Also recorded” adds a separate entry of the source. Read-outs that look alike come from different tables or passages of the source.
Assays:
Cytotoxicity = type: cell-based; details: in words, no data shown
[1] = Stability of YWS01125 in mouse plasma under storage conditions; type: in vitro ADME; details: for Accuracy (RE) after storage / Concentration found after storage, Mean ± SD: mouse plasma
Procedure: The validation was carried out by the US Food and Drug Administration bioanalytical method guidance ([Bioanalytical Method Validation, 2018]; [US Food and Drug Administration, 2018]; [Chen et al., 2019]), namely evaluating selectivity, linearity, accuracy and precision, recovery, matrix effect, and stability. Selectivity was assessed by contrasting the normal blank plasma samples' and analyst plasma samples' chromatograms from six different specimens. Linearity was appraised by different concentrations of the standard medicated plasma samples for 3 days continuously. The peak area was recorded ([Booth et al., 2015]), and weighted (1/x^2) least-squares analysis was used to acquire the standard curve equations. The accuracy and precision were assessed by three different (low, medium, and high) QC samples by diluting with acetonitrile; each concentration had six samples and was continuously accessed for 3 days, and the accuracy, intra-day precision, and inter-day precision were obtained. Recovery was evaluated by comparing the peak area of protein precipitated with acetonitrile first and finally using it to calculate the recovery of the analyst. The matrix effect was measured by comparing the analyst peak area with the saline solution samples and QC samples at the three concentrations. The stability was assessed by defining the three QC levels in several different storage conditions: at room temperature for 6 h, injector stability at 15 °C for a whole night, and after three freeze–thaw cycles.
This experiment investigated the stability of YWS01125 in the mouse plasma at different temperature conditions, namely the auto sampler (15°C) for 12 h of injector stability, room temperature for 6 h, and three freeze–thaw cycles. […] The measured results of YWS01125 are all within the acceptable limits during the entire process (Table 3).

[2] = Stability of liver microsomes study (human); type: in vitro ADME; details: human liver microsomes 0.50 mg/ml, NADPH-generating system, 37°C, 0-90 min
[3] = Pharmacokinetic study after oral administration, plasma by UPLC-MS/MS; type: in vivo, C57BL/6J mice; details: for Cmax / Tmax / CL/F / MRT last / MRT inf / half-life: C57BL/6J, mouse, mice plasma; for CL/F: read-out: CLz/F; for MRT last: read-out: MRT (0-t) (converted); for MRT inf: read-out: MRT (0-∞) (converted); for half-life: read-out: t1/2z
Procedure: Sorvall Biofuge Stratos high-speed refrigerated centrifuge was bought from the Thermo Fisher Scientific Co. Ltd. (Shanghai, China); EL204 electronic balance was selected from Shanghai Mettler-Toledo Instruments Co. Ltd. (Shanghai, China); IKA Vortex Genius 3 Vortex Mixer was purchased from Aika Instrument Equipment Co. Ltd. (Guangzhou, China); and the test was carried out using an AB SCIEX™ 5500 Q-Trap® mass spectrometer (Applied Biosystems, United States) coupled to a Shimadzu Prominence UPLC (ultra-performance liquid chromatography, Shimadzu, United States) system. It was equipped with a binary pump, a degasser, an auto sampler, and an automatic thermostatic column compartment. The column was utilized from Agela Technologies UHP Innoval C18 (2.1 × 50 mm, 1.9 μm; Agela Technologies; Made in China). The whole process with a gradient elution program is as follows: 0.00–0.50 min, 5% B; 0.50–1.50 min, 90% B; 1.50–3.00 min, 90% B; 3.00–3.10 min, 15% B; and 3.10–5.00 min, 15% B. The mobile phase was made up of 0.10% formic acid in water (A) and acetonitrile (B), and the velocity of flow was 0.50 ml/min. The auto sampler and column temperature were set at 15 and 40°C, respectively. The injection volume was 1 μl. The Q-Trap mass spectrometer was operated with positive electrospray ionization source (ESI) and scanned using the multiple-reaction monitoring (MRM) mode. The Analyst® software version 1.6.3 (Applied Bio-systems, AB SCIEX™, United States) was used to control the UPLC-MS/MS system. The best of the YWS01125 parameters was curtain gas, 35 psi; collision gas, medium; ion spray voltage, 5500 V; temperature, 500°C; ion source gas 1, 50 psi; and ion source gas 2, 50 psi. The quantitative analysis ion pairs of YWS01125 and MGL-3196 (IS) were m/z 446.2 → 375 and m/z 435.2 → 182, individually. The suitable collision energy (CE) of YWS01125 and IS was 42 and 50 eV, respectively, and the decluttering voltage (DP) was 160 and 180 V, respectively.
The frozen mice plasma samples and tissue homogenates were thawed at room temperature, vortexed for 1 min, then taken out in 10-μl aliquots in a 1.50-ml centrifuge tube, and this was then mixed with 1 μl of standard solution and 50 μl of internal standard (IS) solution, which was then dissolved and diluted with acetonitrile. Subsequently, it was vortexed for 3 min and at 14,000 rpm centrifugation for 5 min. The adopted 1 μl of the supernatant was used for sample injection analysis.
A total of 18 C57BL/6J mice were given YWS01125 by oral administration with a dose of 10, 20, and 40 mg/kg, respectively ([Lally et al., 2019]; [Kelly et al., 2014]; [Motamed et al., 2017]) (with the concentration of drug administration selected according to the study by Kelly et al.). The blood samples of 20 μl were collected and placed in heparinized tubes from the ophthalmic venous plexus before and at 0.03, 0.08, 0.16, 0.25, 0.50, 1, 2, 4, 6, 8, 12, and 24 h. The samples were immediately centrifuged at 14,000 rpm for 10 min at 4°C. The plasma was separated and stored below −80°C until UHPLC-MS/MS analysis.
The validated method was applied to the pharmacokinetic study of YWS01125 in normal C57BL/6J mice after oral administration, at doses of 10, 20, and 40 mg/kg suspensions with sodium carboxymethyl cellulose (CMCNa). YWS01125 was measured in the plasma until the last blood collection time (24 h). The main pharmacokinetic parameters of YWS01125 were processed by a no compartmental model using the DAS 2.0 software package, and the pharmacokinetic parameters are summarized in Table 4.

[4] = injector stability (15°C, 12 h), added 10 ng/ml
[5] = injector stability (15°C, 12 h), added 50 ng/ml
[6] = injector stability (15°C, 12 h), added 300 ng/ml
[7] = room temperature for 6 h, added 10 ng/ml
[8] = room temperature for 6 h, added 300 ng/ml
[9] = three freeze–thaw cycles, added 10 ng/ml
[10] = three freeze–thaw cycles, added 50 ng/ml
[11] = three freeze–thaw cycles, added 300 ng/ml

Stability in mouse plasma (in words) ([1]; auto sampler 15°C 12 h, room temperature 6 h, three freeze–thaw cycles): maintains stability
Accuracy (RE) after storage [1, 4]: 5.00%
Concentration found after storage, Mean ± SD [1, 4]: 0.01067 ± 0.00052 µg/mL
Accuracy (RE) after storage [1, 5]: −4.68%
Concentration found after storage, Mean ± SD [1, 5]: 0.04991 ± 0.00215 µg/mL
Accuracy (RE) after storage [1, 6]: −1.60%
Concentration found after storage, Mean ± SD [1, 6]: 0.29517 ± 0.02936 µg/mL
Accuracy (RE) after storage [1, 7]: 1.20%
Concentration found after storage, Mean ± SD [1, 7]: 0.01029 ± 0.00082 µg/mL
Concentration found after storage, Mean ± SD ([1]; room temperature for 6 h, added 50 ng/ml): 0.05262 ± 0.00173 µg/mL
Accuracy (RE) after storage [1, 8]: 3.88%
Concentration found after storage, Mean ± SD [1, 8]: 0.29933 ± 0.01007 µg/mL
Accuracy (RE) after storage [1, 9]: −1.80%
Concentration found after storage, Mean ± SD [1, 9]: 0.00945 ± 0.00057 µg/mL
Accuracy (RE) after storage [1, 10]: −2.20%
Concentration found after storage, Mean ± SD [1, 10]: 0.0478 ± 0.00396 µg/mL
Accuracy (RE) after storage [1, 11]: −2.66%
Concentration found after storage, Mean ± SD [1, 11]: 0.28917 ± 0.01277 µg/mL
Metabolic stability / metabolite formation in liver microsomes [2]: no metabolites; also recorded: stable
Cmax ([3]; oral 10 mg/kg): 0.189 ± 0.03 µg/mL
Tmax ([3]; oral 10 mg/kg): 0.917 h
CL/F ([3]; oral 10 mg/kg): 9.6 ± 1.2 L/h/kg
MRT last ([3]; oral 10 mg/kg): 3.42 h
MRT inf ([3]; oral 10 mg/kg): 4.04 h
half-life ([3]; oral 10 mg/kg): 3.15 ± 1.59 h
Cmax ([3]; oral 20 mg/kg): 0.293 ± 0.0604 µg/mL
Tmax ([3]; oral 20 mg/kg): 1 h
CL/F ([3]; oral 20 mg/kg): 15 ± 16.8 L/h/kg
MRT last ([3]; oral 20 mg/kg): 3.06 h
MRT inf ([3]; oral 20 mg/kg): 3.4 h
half-life ([3]; oral 20 mg/kg): 2.54 ± 0.633 h
Cmax ([3]; oral 40 mg/kg): 0.382 ± 0.0306 µg/mL
Tmax ([3]; oral 40 mg/kg): 0.917 h
CL/F ([3]; oral 40 mg/kg): 16.8 ± 3 L/h/kg
MRT last ([3]; oral 40 mg/kg): 4.57 h
MRT inf ([3]; oral 40 mg/kg): 4.94 h
half-life ([3]; oral 40 mg/kg): 3.03 ± 1.07 h
Time of highest concentration in the blood ([3]; mice, oral): 1 h
Compound: N#Cc1cn(-c2cc(Cl)c(Oc3cc(C4CCC4)c(=O)[nH]n3)c(Cl)c2)c(=O)[nH]c1=O [YWS01125, 1-(3,5-dichloro-4-((5-cyclobutyl-6-oxo-1,6-dihydropyridazin-3-yl)oxy)phenyl)-2,4-dioxo-1,2,3,4-tetrahydropyrimidine-5-carbonitrile]
Cytotoxicity (Cytotoxicity): low cytotoxicity
